This note sets out measurements from ChEMBL document CHEMBL3046566, “In vitro antimycobacterial activity of novel N-(4-(substituted phenyl amino)-6-(pyridin-2-ylamino)-1,3,5-triazin-2-yl)isonicotinohydrazide” (Med Chem Res, 2011).

≈ marks a conversion by molar mass, not a printed value.

In general, MIC refers to the smallest concentration in the dilution series that meets the test's criterion for growth inhibition.

In data set [1] the test system is Mycobacterium tuberculosis. Nature of the data set: Growth inhibition of Mycobacterium tuberculosis H37Rv ATCC 27294 at 0.1211 uM by radiometric analysis. Conditions: read-out: GI. Format: functional.
The test system of data set [2] is Mycobacterium tuberculosis. Nature of the data set: Growth inhibition of Mycobacterium tuberculosis H37Rv ATCC 27294 at 0.0677 uM by radiometric analysis. Format: functional. The settings on record: read-out: GI.
Data set [3] deals with Mycobacterium tuberculosis. Nature of the data set: Growth inhibition of Mycobacterium tuberculosis H37Rv ATCC 27294 at 0.1109 uM by radiometric analysis. Format: functional. Conditions: read-out: GI.
For data set [4], the system named is Mycobacterium tuberculosis. Nature of the data set: Growth inhibition of Mycobacterium tuberculosis H37Rv ATCC 27294 at 0.1229 uM by radiometric analysis. Format: functional. The settings on record: read-out: GI.
For data set [5], the system named is Mycobacterium tuberculosis. Nature of the data set: Antimycobacterial activity against Mycobacterium tuberculosis H37Rv ATCC 27294 by microdilution alamar blue assay. Format: functional. For orientation: Broth dilution looks for growth in wells or tubes with falling amounts of substance.
In data set [6] the test system is Vero. Nature of the data set: Cytotoxicity against Chlorocebus aethiops (African green monkey) Vero cells up to 62.5 ug/ml after 72 hr by MTT assay. The data set is classed as cell-based. Conditions: chlorocebus sabaeus. (In general: Formazan colour is commonly taken as a measure of viable cells.)
For data set [7], the system named is Mycobacterium tuberculosis. Nature of the data set: Growth inhibition of Mycobacterium tuberculosis H37Rv ATCC 27294 at 0.0418 uM by radiometric analysis. The data set is classed as functional. Conditions: read-out: GI.
For data set [8], the system named is Mycobacterium tuberculosis. Nature of the data set: Growth inhibition of Mycobacterium tuberculosis H37Rv ATCC 27294 at 0.0250 uM by radiometric analysis. Format: functional. The settings on record: read-out: GI.
Data set [9] concerns Mycobacterium tuberculosis. Nature of the data set: Growth inhibition of Mycobacterium tuberculosis H37Rv ATCC 27294 at 0.6890 uM by radiometric analysis. Format: functional. The settings on record: read-out: GI.
Data set [10] relates to Mycobacterium tuberculosis. Nature of the data set: Growth inhibition of Mycobacterium tuberculosis H37Rv ATCC 27294 at 0.0650 uM by radiometric analysis. The data set is classed as functional. Conditions: read-out: GI.
Data set [11] has as its system Mycobacterium tuberculosis. Nature of the data set: Growth inhibition of Mycobacterium tuberculosis H37Rv ATCC 27294 at 0.0614 uM by radiometric analysis. The data set is classed as functional. The settings on record: read-out: GI.
Data set [12] has as its system Mycobacterium tuberculosis. Nature of the data set: Growth inhibition of Mycobacterium tuberculosis H37Rv ATCC 27294 at 0.1218 uM by radiometric analysis. Format: functional. The settings on record: read-out: GI.
For data set [13], the system named is Mycobacterium tuberculosis. Nature of the data set: Growth inhibition of Mycobacterium tuberculosis H37Rv ATCC 27294 at 0.0211 uM by radiometric analysis. Conditions: read-out: GI. The data set is classed as functional.
In data set [14] the test system is Mycobacterium tuberculosis. Nature of the data set: Growth inhibition of Mycobacterium tuberculosis H37Rv ATCC 27294 at 0.1214 uM by radiometric analysis. Format: functional. Conditions: read-out: GI.
Data set [15] concerns Mycobacterium tuberculosis. Nature of the data set: Growth inhibition of Mycobacterium tuberculosis H37Rv ATCC 27294 at 0.7110 uM by radiometric analysis. The data set is classed as functional. The settings on record: read-out: GI.
Data set [16] has as its system Mycobacterium tuberculosis. Nature of the data set: Growth inhibition of Mycobacterium tuberculosis H37Rv ATCC 27294 at 0.0311 uM by radiometric analysis. The data set is classed as functional. Conditions: read-out: GI.
For data set [17], the system named is Mycobacterium tuberculosis. Nature of the data set: Growth inhibition of Mycobacterium tuberculosis H37Rv ATCC 27294 at 0.1110 uM by radiometric analysis. The data set is classed as functional. The settings on record: read-out: GI.
Data set [18] deals with Mycobacterium tuberculosis. Nature of the data set: Growth inhibition of Mycobacterium tuberculosis H37Rv ATCC 27294 at 0.0550 uM by radiometric analysis. The data set is classed as functional. Conditions: read-out: GI.
Data set [19] concerns Mycobacterium tuberculosis. Nature of the data set: Growth inhibition of Mycobacterium tuberculosis H37Rv ATCC 27294 at 0.1277 uM by radiometric analysis. Format: functional. Conditions: read-out: GI.
For data set [20], the system named is Mycobacterium tuberculosis. Nature of the data set: Growth inhibition of Mycobacterium tuberculosis H37Rv ATCC 27294 at 0.1127 uM by radiometric analysis. The data set is classed as functional. The settings on record: read-out: GI.

Consider `O=C(NNc1nc(Nc2ccc([N+](=O)[O-])cc2)nc(Nc2ccccn2)n1)c1ccncc1`, for which, in data set [1], the inhibition of growth at 0.1211 µM was 69%.

In the case of `COc1ccccc1Nc1nc(NNC(=O)c2ccncc2)nc(Nc2ccccn2)n1`, the inhibition of growth at 0.0677 µM in data set [2] turned out to be 81%.

With `O=C(NNc1nc(Nc2cccc([N+](=O)[O-])c2)nc(Nc2ccccn2)n1)c1ccncc1`, in data set [3], the inhibition of growth at 0.1109 µM came to 72%.

For `O=C(NNc1nc(Nc2ccccn2)nc(Nc2ccccc2O)n1)c1ccncc1`, the inhibition of growth at 0.1229 µM in data set [4] is 71%.

The compound `NS(=O)(=O)c1ccc(Nc2nc(NNC(=O)c3ccncc3)nc(Nc3ccccn3)n2)cc1` had an MIC in data set [5] of 6 µg/mL (≈ 12.5 µM). In addition, in data set [6], the Activity result is on record as “Non-toxic”. Also, the inhibition of growth at 0.0418 µM in [7] was 90%.

`O=C(NNc1nc(Nc2ccc(Cl)cc2)nc(Nc2ccccn2)n1)c1ccncc1` yielded an MIC in data set [5] of 5.91 µg/mL (≈ 13.6 µM). In data set [8], the inhibition of growth at 0.025 µM was determined as 94%.

`COc1cccc(Nc2nc(NNC(=O)c3ccncc3)nc(Nc3ccccn3)n2)c1`: the inhibition of growth at 0.689 µM in data set [9] was 83%.

For the compound `O=C(NNc1nc(Nc2ccccn2)nc(Nc2ccccc2Cl)n1)c1ccncc1`, the inhibition of growth at 0.065 µM in data set [10] stood at 80%.

In data set [5], `O=C(NNc1nc(Nc2ccccn2)nc(Nc2ccc(Cl)cc2Cl)n1)c1ccncc1` displayed an MIC of 5.92 µg/mL (≈ 12.6 µM). In addition, the inhibition of growth at 0.0614 µM in [11] worked out at 92%. Besides, the Activity entry in [6] is on record as “Non-toxic”.

`Cc1cccc(Nc2nc(NNC(=O)c3ccncc3)nc(Nc3ccccn3)n2)c1`: the inhibition of growth at 0.1218 µM in data set [12] turned out to be 74%.

Consider `COc1ccc(Nc2nc(NNC(=O)c3ccncc3)nc(Nc3ccccn3)n2)cc1`, for which, in data set [5], the MIC was 4.11 µg/mL (≈ 9.57 µM). Further, in data set [6], the Activity result is listed as “Non-toxic”. Moreover, the inhibition of growth at 0.0211 µM in data set [13] came out at 94%.

Turning to `O=C(NNc1nc(Nc2ccccn2)nc(Nc2ccccc2[N+](=O)[O-])n1)c1ccncc1`, the inhibition of growth at 0.1214 µM in [14] came out at 67%.

`O=C(NNc1nc(Nc2ccccc2)nc(Nc2ccccn2)n1)c1ccncc1`: the inhibition of growth at 0.711 µM in [15] came out at 71%.

For `O=C(NNc1nc(Nc2ccccn2)nc(Nc2c(Cl)cccc2Cl)n1)c1ccncc1`, the MIC in data set [5] stood at 4.69 µg/mL (≈ 10 µM). The Activity entry in data set [6] was “Non-toxic”. In addition, in data set [16], the inhibition of growth at 0.0311 µM came to 91%.

Take `Cc1ccccc1Nc1nc(NNC(=O)c2ccncc2)nc(Nc2ccccn2)n1`: in data set [17], the inhibition of growth at 0.111 µM came out at 71%.

In the case of `O=C(NNc1nc(Nc2cccc(Cl)c2)nc(Nc2ccccn2)n1)c1ccncc1`, the inhibition of growth at 0.055 µM in data set [18] was 82%.

With `O=C(NNc1nc(Nc2ccc(O)cc2)nc(Nc2ccccn2)n1)c1ccncc1`, in [19], the inhibition of growth at 0.1277 µM was determined as 77%.

Take `Cc1ccc(Nc2nc(NNC(=O)c3ccncc3)nc(Nc3ccccn3)n2)cc1`: in [20], the inhibition of growth at 0.1127 µM came to 77%.
